Measured values from the supplement of paper PMC10883282.

Assays:
Assay in all cases: relative viability vs DMSO control (72 h) (fraction); higher = more viable cells
RD-ES = tested on: RD-ES
Outline: (§1)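 Sarcoma cell lines were plated in 384 wells to reach 80–90% confluence, treated after 24 h with 2.5 µl of serially diluted compound and held 72 h at 37 °C, 5% CO2. Relative viability was taken as percent growth from ATPLite readings, averaged over up to triplicate wells. The values were rescaled so that 1 marks full and 0 marks none.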

HS729 = tested on: HS729
Outline: as §1

RD = tested on: RD
Outline: as §1

HT1080 = tested on: HT1080
Outline: as §1

SW684 = tested on: SW684
Outline: as §1

SW1353 = tested on: SW1353
Outline: as §1

KHOS-240S = tested on: KHOS-240S
Outline: as §1

SYO-1 = tested on: SYO-1
Outline: as §1

KHOS-NP = tested on: KHOS-NP
Outline: as §1

SW872 = tested on: SW872
Outline: as §1

SK-LMS-1 = tested on: SK-LMS-1
Outline: as §1

G401 = tested on: G401
Outline: as §1

Cc1nc(Nc2ncc(C(=O)Nc3c(C)cccc3Cl)s2)cc(N2CCN(CCO)CC2)n1 [Dasatinib]
Details	relative viability
G401, 0.00017 µM	1
G401, 0.00051 µM	0.996
G401, 0.00152 µM	1.015
G401, 0.00457 µM	1
G401, 0.01372 µM	0.959
G401, 0.04115 µM	0.876
G401, 0.1235 µM	0.833
G401, 0.3704 µM	0.789
G401, 1.111 µM	0.7831
G401, 3.333 µM	0.69
G401, 10 µM	0.391
HS729, 0.00017 µM	0.947
HS729, 0.00051 µM	0.959
HS729, 0.00152 µM	0.95
HS729, 0.00457 µM	0.869
HS729, 0.01372 µM	0.796
HS729, 0.04115 µM	0.696
HS729, 0.1235 µM	0.633
HS729, 0.3704 µM	0.618
HS729, 1.111 µM	0.609
HS729, 3.333 µM	0.585
HS729, 10 µM	0.581
HT1080, 0.00017 µM	1.03
HT1080, 0.00051 µM	1.05
HT1080, 0.00152 µM	1.04
HT1080, 0.00457 µM	1.01
HT1080, 0.01372 µM	1.02
HT1080, 0.04115 µM	0.989
HT1080, 0.1235 µM	0.924
HT1080, 0.3704 µM	0.895
HT1080, 1.111 µM	0.907
HT1080, 3.333 µM	0.873
HT1080, 10 µM	0.535
KHOS-240S, 0.00017 µM	1.06
KHOS-240S, 0.00051 µM	1.04
KHOS-240S, 0.00152 µM	1.01
KHOS-240S, 0.00457 µM	0.957
KHOS-240S, 0.01372 µM	0.816
KHOS-240S, 0.04115 µM	0.708
KHOS-240S, 0.1235 µM	0.494
KHOS-240S, 0.3704 µM	0.337
KHOS-240S, 1.111 µM	0.279
KHOS-240S, 3.333 µM	0.25
KHOS-240S, 10 µM	0.198
KHOS-NP, 0.00017 µM	1.023
KHOS-NP, 0.00051 µM	1.03
KHOS-NP, 0.00152 µM	1
KHOS-NP, 0.00457 µM	0.993
KHOS-NP, 0.01372 µM	0.923
KHOS-NP, 0.04115 µM	0.872
KHOS-NP, 0.1235 µM	0.721
KHOS-NP, 0.3704 µM	0.525
KHOS-NP, 1.111 µM	0.436
KHOS-NP, 3.333 µM	0.327
KHOS-NP, 10 µM	0.237
RD, 0.00017 µM	1.12
RD, 0.00051 µM	1.12
RD, 0.00152 µM	1.09
RD, 0.00457 µM	1.02
RD, 0.01372 µM	0.953
RD, 0.04115 µM	0.775
RD, 0.1235 µM	0.536
RD, 0.3704 µM	0.458
RD, 1.111 µM	0.426
RD, 3.333 µM	0.366
RD, 10 µM	0.267
RD-ES, 0.00017 µM	0.989
RD-ES, 0.00051 µM	0.966
RD-ES, 0.00152 µM	0.966
RD-ES, 0.00457 µM	0.962
RD-ES, 0.01372 µM	0.958
RD-ES, 0.04115 µM	0.949
RD-ES, 0.1235 µM	0.9274
RD-ES, 0.3704 µM	0.918
RD-ES, 1.111 µM	0.92
RD-ES, 3.333 µM	0.759
RD-ES, 10 µM	0.483
SK-LMS-1, 0.00017 µM	1.03
SK-LMS-1, 0.00051 µM	1.06
SK-LMS-1, 0.00152 µM	1.09
SK-LMS-1, 0.00457 µM	1.04
SK-LMS-1, 0.01372 µM	1.03
SK-LMS-1, 0.04115 µM	0.895
SK-LMS-1, 0.1235 µM	0.722
SK-LMS-1, 0.3704 µM	0.623
SK-LMS-1, 1.111 µM	0.611
SK-LMS-1, 3.333 µM	0.656
SK-LMS-1, 10 µM	0.4228
SW684, 0.00017 µM	1.166
SW684, 0.00051 µM	1.15
SW684, 0.00152 µM	1.18
SW684, 0.00457 µM	1.18
SW684, 0.01372 µM	1.15
SW684, 0.04115 µM	1
SW684, 0.1235 µM	0.739
SW684, 0.3704 µM	0.625
SW684, 1.111 µM	0.6057
SW684, 3.333 µM	0.619
SW684, 10 µM	0.457
SW872, 0.00017 µM	1.03
SW872, 0.00051 µM	1.02
SW872, 0.00152 µM	1.01
SW872, 0.00457 µM	0.957
SW872, 0.01372 µM	0.86
SW872, 0.04115 µM	0.779
SW872, 0.1235 µM	0.639
SW872, 0.3704 µM	0.551
SW872, 1.111 µM	0.521
SW872, 3.333 µM	0.481
SW872, 10 µM	0.359
SW1353, 0.00017 µM	0.979
SW1353, 0.00051 µM	0.982
SW1353, 0.00152 µM	0.996
SW1353, 0.00457 µM	0.956
SW1353, 0.01372 µM	0.888
SW1353, 0.04115 µM	0.704
SW1353, 0.1235 µM	0.59
SW1353, 0.3704 µM	0.46
SW1353, 1.111 µM	0.4271
SW1353, 3.333 µM	0.411
SW1353, 10 µM	0.372
SYO-1, 0.00017 µM	0.917
SYO-1, 0.00051 µM	0.923
SYO-1, 0.00152 µM	0.91
SYO-1, 0.00457 µM	0.865
SYO-1, 0.01372 µM	0.779
SYO-1, 0.04115 µM	0.704
SYO-1, 0.1235 µM	0.645
SYO-1, 0.3704 µM	0.573
SYO-1, 1.111 µM	0.528
SYO-1, 3.333 µM	0.415
SYO-1, 10 µM	0.188

COc1cc(OC)cc(N(CCNC(C)C)c2ccc3ncc(-c4cnn(C)c4)nc3c2)c1 [Erdafitinib]
Details	relative viability
G401, 0.00017 µM	0.991
G401, 0.00051 µM	0.976
G401, 0.00152 µM	0.933
G401, 0.00457 µM	0.806
G401, 0.01372 µM	0.707
G401, 0.04115 µM	0.591
G401, 0.1235 µM	0.534
G401, 0.3704 µM	0.472
G401, 1.111 µM	0.376
G401, 3.333 µM	0.233
G401, 10 µM	0.121
HS729, 0.00017 µM	1
HS729, 0.00051 µM	0.868
HS729, 0.00152 µM	0.844
HS729, 0.00457 µM	0.813
HS729, 0.01372 µM	0.74
HS729, 0.04115 µM	0.613
HS729, 0.1235 µM	0.604
HS729, 0.3704 µM	0.549
HS729, 1.111 µM	0.487
HS729, 3.333 µM	0.423
HS729, 10 µM	0.37
HT1080, 0.00017 µM	1.06
HT1080, 0.00051 µM	1.09
HT1080, 0.00152 µM	1.05
HT1080, 0.00457 µM	1.07
HT1080, 0.01372 µM	1.02
HT1080, 0.04115 µM	1.05
HT1080, 0.1235 µM	1.08
HT1080, 0.3704 µM	1.06
HT1080, 1.111 µM	1.02
HT1080, 3.333 µM	0.959
HT1080, 10 µM	0.41
KHOS-240S, 0.00017 µM	1.06
KHOS-240S, 0.00051 µM	1.05
KHOS-240S, 0.00152 µM	1.01
KHOS-240S, 0.00457 µM	0.999
KHOS-240S, 0.01372 µM	0.939
KHOS-240S, 0.04115 µM	0.828
KHOS-240S, 0.1235 µM	0.762
KHOS-240S, 0.3704 µM	0.713
KHOS-240S, 1.111 µM	0.643
KHOS-240S, 3.333 µM	0.521
KHOS-240S, 10 µM	0.19
KHOS-NP, 0.00017 µM	1.07
KHOS-NP, 0.00051 µM	1.06
KHOS-NP, 0.00152 µM	1.05
KHOS-NP, 0.00457 µM	1.06
KHOS-NP, 0.01372 µM	1.04
KHOS-NP, 0.04115 µM	1.04
KHOS-NP, 0.1235 µM	1.02
KHOS-NP, 0.3704 µM	1.01
KHOS-NP, 1.111 µM	0.999
KHOS-NP, 3.333 µM	0.943
KHOS-NP, 10 µM	0.638
RD, 0.00017 µM	1.05
RD, 0.00051 µM	1.09
RD, 0.00152 µM	1.08
RD, 0.00457 µM	1.08
RD, 0.01372 µM	1.09
RD, 0.04115 µM	1.09
RD, 0.1235 µM	1.13
RD, 0.3704 µM	1.13
RD, 1.111 µM	1.11
RD, 3.333 µM	0.677
RD, 10 µM	0.269
RD-ES, 0.00017 µM	0.963
RD-ES, 0.00051 µM	0.971
RD-ES, 0.00152 µM	0.929
RD-ES, 0.00457 µM	0.96
RD-ES, 0.01372 µM	0.917
RD-ES, 0.04115 µM	0.873
RD-ES, 0.1235 µM	0.873
RD-ES, 0.3704 µM	0.861
RD-ES, 1.111 µM	0.783
RD-ES, 3.333 µM	0.5562
RD-ES, 10 µM	0.148
SK-LMS-1, 0.00017 µM	0.987
SK-LMS-1, 0.00051 µM	0.991
SK-LMS-1, 0.00152 µM	0.994
SK-LMS-1, 0.00457 µM	1
SK-LMS-1, 0.01372 µM	0.999
SK-LMS-1, 0.04115 µM	0.954
SK-LMS-1, 0.1235 µM	0.946
SK-LMS-1, 0.3704 µM	0.913
SK-LMS-1, 1.111 µM	0.839
SK-LMS-1, 3.333 µM	0.673
SK-LMS-1, 10 µM	0.183
SW684, 0.00017 µM	1.1
SW684, 0.00051 µM	1.17
SW684, 0.00152 µM	1.13
SW684, 0.00457 µM	1.1
SW684, 0.01372 µM	1.08
SW684, 0.04115 µM	1.04
SW684, 0.1235 µM	1.06
SW684, 0.3704 µM	1.09
SW684, 1.111 µM	0.998
SW684, 3.333 µM	0.739
SW684, 10 µM	0.39
SW872, 0.00017 µM	1.03
SW872, 0.00051 µM	1.05
SW872, 0.00152 µM	1.07
SW872, 0.00457 µM	1.01
SW872, 0.01372 µM	0.989
SW872, 0.04115 µM	0.985
SW872, 0.1235 µM	0.949
SW872, 0.3704 µM	0.912
SW872, 1.111 µM	0.717
SW872, 3.333 µM	0.5
SW872, 10 µM	0.274
SW1353, 0.00017 µM	1.07
SW1353, 0.00051 µM	1.01
SW1353, 0.00152 µM	0.975
SW1353, 0.00457 µM	0.889
SW1353, 0.01372 µM	0.859
SW1353, 0.04115 µM	0.853
SW1353, 0.1235 µM	0.787
SW1353, 0.3704 µM	0.781
SW1353, 1.111 µM	0.745
SW1353, 3.333 µM	0.57
SW1353, 10 µM	0.0859
SYO-1, 0.00017 µM	0.933
SYO-1, 0.00051 µM	0.814
SYO-1, 0.00152 µM	0.734
SYO-1, 0.00457 µM	0.674
SYO-1, 0.01372 µM	0.588
SYO-1, 0.04115 µM	0.519
SYO-1, 0.1235 µM	0.451
SYO-1, 0.3704 µM	0.396
SYO-1, 1.111 µM	0.342
SYO-1, 3.333 µM	0.248
SYO-1, 10 µM	-0.0109
